Assay [1] addresses T1, (α4)3(β2)2 nAChR (Homo sapiens, UniProt P17787+P43681).
T1 construct: expressed in transfected cells; host or cells: Xenopus laevis oocytes injected with cRNA
Kind of assay: Two-electrode voltage-clamp of ACh-induced currents in Xenopus oocytes. Format: cell-based. As for the experimental part: (§1) To begin to characterize LY2087101 interaction with the heteropentameric α4β2 nAChRs, we examined the selectivity of LY2087101 for the two α4β2 nAChR isoforms; high-agonist sensitivity (α4)2(β2)3 and low-agonist sensitivity (α4)3(β2)2 nAChRs. Xenopus oocytes were injected with α4 and β2 subunits RNAs at ratios 8:1 and 1:8 to favor expression of (α4)3(β2)2 and (α4)2(β2)3 nAChRs, respectively.
(§2) Ovarian lobules were surgically harvested from oocytes-positive female Xenopus laevis (NASCO, Fort Atkinson, WI) according to an animal use protocol approved by the Texas A&M Health Sciences Center Institutional Animals Care and Use Committee. The Texas A&M Health Sciences Center Research Facility is registered as an animal research facility with the United States Department of Agriculture and is fully accredited by the American Association for Accreditation of Laboratory Animal Care (AAALAC). For oocytes defolliculation, ovarian lobes were treated with 3 mg/ml collagenase type 2 (Worthington Biomedical, Lakewood, NJ) in Ca + 2-free buffer (85 mM NaCl, 2.5 mM KCl, 1 mM MgCl2, 5 mM HEPES, pH 7.6). Collagenase treatment was allowed to proceed for 3 hours at room temperature with gentle shaking then oocytes were washed several times with buffer to remove collagenase then with ND96-gentamicine buffer. Healthy Stage V and VI oocytes were visually selected and maintained at 18 °C in modified ND96-gentamicine buffer (96 mM NaCl, 2 mM KCl, 1.8 mM CaCl2, 1 mM MgCl2, 5 mM HEPES, 50 µg/ml gentamicin, pH 7.6). Oocytes were injected with 50–100 ng of the desired nAChR subunits cRNA mix at ratios of 8α:1β or 1α:8β to express nAChRs with subunit stoichiometries of 3α:2β (low agonist sensitivity) or 2α:3β (high agonist sensitivity), respectively.
(§3) Oocytes were continuously perfused with recording buffer (100 mM NaCl, 2 mM KCl, 1 mM CaCl2, 0.8 mM MgCl2, 1 mM EGTA, 10 mM Hepes, pH 7.5) except during periods of drug applications.

Assay [2] addresses T2, (α4)2(β2)3 nAChR (Homo sapiens, UniProt P17787+P43681).
T2 construct: expressed in transfected cells; host or cells: Xenopus laevis oocytes injected with cRNA
The description is as above. Format: cell-based. As for the experimental part: as §1, §2, §3

The mark [3] stands for this setting: ACh alone (control), normalized to 1 mM ACh.
Setting [4] is: in the presence of 1 µM LY2087101.

T2 sequence (P43681 29-627 limits assumed): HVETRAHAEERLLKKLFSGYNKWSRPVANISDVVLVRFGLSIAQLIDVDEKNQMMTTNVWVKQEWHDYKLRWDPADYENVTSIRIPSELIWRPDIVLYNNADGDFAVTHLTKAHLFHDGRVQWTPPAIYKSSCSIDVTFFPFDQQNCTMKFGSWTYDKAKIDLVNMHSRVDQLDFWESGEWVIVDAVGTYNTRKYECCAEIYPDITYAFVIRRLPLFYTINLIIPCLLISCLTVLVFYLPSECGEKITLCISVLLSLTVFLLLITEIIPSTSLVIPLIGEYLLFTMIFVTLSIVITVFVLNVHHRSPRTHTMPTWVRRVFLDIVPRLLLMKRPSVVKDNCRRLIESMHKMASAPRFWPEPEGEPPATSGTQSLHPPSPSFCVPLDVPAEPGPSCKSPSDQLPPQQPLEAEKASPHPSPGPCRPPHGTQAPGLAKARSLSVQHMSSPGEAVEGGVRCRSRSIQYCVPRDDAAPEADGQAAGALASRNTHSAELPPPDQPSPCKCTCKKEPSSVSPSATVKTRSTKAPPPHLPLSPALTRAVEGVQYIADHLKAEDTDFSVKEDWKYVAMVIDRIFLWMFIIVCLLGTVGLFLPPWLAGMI
T2 sequence (P17787 26-502): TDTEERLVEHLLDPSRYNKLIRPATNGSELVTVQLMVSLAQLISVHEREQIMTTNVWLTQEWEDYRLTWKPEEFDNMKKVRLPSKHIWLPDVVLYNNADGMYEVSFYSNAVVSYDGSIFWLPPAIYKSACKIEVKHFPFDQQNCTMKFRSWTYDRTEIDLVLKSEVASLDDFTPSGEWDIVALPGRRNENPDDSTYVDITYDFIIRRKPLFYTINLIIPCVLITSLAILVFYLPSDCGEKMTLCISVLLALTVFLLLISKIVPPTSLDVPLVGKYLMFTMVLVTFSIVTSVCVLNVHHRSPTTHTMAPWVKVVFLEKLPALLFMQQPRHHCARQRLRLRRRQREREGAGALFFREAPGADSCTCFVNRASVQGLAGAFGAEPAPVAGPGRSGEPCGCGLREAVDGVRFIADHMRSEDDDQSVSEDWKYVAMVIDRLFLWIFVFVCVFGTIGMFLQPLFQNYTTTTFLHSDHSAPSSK
T1 sequence (P43681 29-627 limits assumed): as the sequence (P43681 29-627 limits assumed) above
T1 sequence (P17787 26-502): as the sequence (P17787 26-502) above

Consider `CC(=O)OCC[N+](C)(C)C` [ACh, Acetylcholine chloride], for which the “ACh h (Hill coefficient)” value in assay [1] (ACh alone (control)) is given as 0.66 ± 0.06; in assay [1] (setting [4]), 0.7 ± 0.1; in assay [2] (ACh alone (control)) it was 1.2 ± 0.03; in assay [2] (setting [4]), 1.0 ± 0.04. Besides, the entries for the “ACh Imax” value in assay [1] (setting [3]) and in assay [2] (setting [3]) were 117 ± 6% and 100 ± 1%, respectively.

Source of the values: PMC5775429, “LY2087101 and dFBr share transmembrane binding sites in the (α4)3(β2)2 Nicotinic Acetylcholine Receptor” (Scientific Reports, 2018).
